Test results taken from patent US6914045B2, “Glycopeptide antibiotics” (Wyeth Holdings Corporation, priority 2001, dated 2005).
In brackets after ≈: the same amount, converted by molar mass.

What was measured:
Test in all cases: in vitro antibacterial evaluation, MIC by broth dilution
Type in all cases: cell-based
Enterococcus sp. = conditions: broth dilution, 18 hours at 35° C.; for MIC Enterococcus faecalis (ATCC 29212): strain ATCC 29212; for MIC Enterococcus faecium (GC 2243): strain GC 2243; for MIC Enterococcus faecalis (GC 4552): strain GC 4552; for MIC Enterococcus faecalis (GC 4553): strain GC 4553; for MIC Enterococcus faecalis (GC 4554): strain GC 4554; for MIC Enterococcus faecium (GC 4556): strain GC 4556; for MIC Enterococcus faecium (GC 4557): strain GC 4557; for MIC Enterococcus avium (GC 4558): strain GC 4558; for MIC Enterococcus faecalis (GC 6189): strain GC 6189
Outline: (§1)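 Step 1: dilute antibiotic across 64-0.06 μg/mL in Muller-Hinton II […]. Step 2: inoculate at 5×10^5 CFU/mL.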

Escherichia coli = test system: Escherichia coli
Outline: as §1

Staphylococcus sp. = conditions: broth dilution, 18 hours at 35° C.; for MIC Staphylococcus aureus (GC 1131): strain GC 1131
Outline: as §1

Streptococcus sp. = conditions: broth dilution, 18 hours at 35° C.
Outline: as §1

CC(=O)n1cc(C2OCC3OC(OC4C(CO)OC(Oc5ccc(CC6NC(=O)C(C(C)c7ccccc7)NC(=O)CNC(=O)C(CO)NC(=O)C(C(O)C7CNC(=N)N7C7OC(CO)C(O)C(O)C7O)NC(=O)C(C(O)C7CNC(=N)N7)NC6=O)cc5)C(O)C4O)C(O)C(O)C3O2)c2ccccc21 (stereo not drawn) [Example 161] was tested, and the “MIC Enterococcus faecalis (GC 2242)” value (Enterococcus sp.; Enterococcus faecalis (GC 2242)) was 16 mg/L (≈ 10.9 µM), the “MIC Enterococcus faecalis (GC 2691)” value (Enterococcus sp.; Enterococcus faecalis (GC 2691)) was 16 mg/L (≈ 10.9 µM) and the “MIC Enterococcus faecalis (GC 3059)” value (Enterococcus sp.; Enterococcus faecalis (GC 3059)) was 16 mg/L (≈ 10.9 µM). For the same compound, the “MIC Enterococcus faecalis (ATCC 29212)” value (Enterococcus sp.; inoculum 5×10^5 CFU/mL) was 16 mg/L (≈ 10.9 µM), the “MIC Enterococcus faecium (GC 2243)” value (Enterococcus sp.; inoculum 5×10^5 CFU/mL) was 16 mg/L (≈ 10.9 µM) and the “MIC Enterococcus faecalis (GC 4552)” value (Enterococcus sp.; inoculum 5×10^5 CFU/mL) was 16 mg/L (≈ 10.9 µM). The “MIC Enterococcus faecalis (GC 4553)” value (Enterococcus sp.; inoculum 5×10^5 CFU/mL) was 16 mg/L (≈ 10.9 µM), the “MIC Enterococcus faecalis (GC 4554)” value (Enterococcus sp.; inoculum 5×10^5 CFU/mL) was 16 mg/L (≈ 10.9 µM) and the “MIC Enterococcus faecium (GC 4556)” value (Enterococcus sp.; inoculum 5×10^5 CFU/mL) was 16 mg/L (≈ 10.9 µM). The “MIC Enterococcus faecium (GC 4557)” value (Enterococcus sp.; inoculum 5×10^5 CFU/mL) was 8 mg/L (≈ 5.46 µM), the “MIC Enterococcus avium (GC 4558)” value (Enterococcus sp.; inoculum 5×10^5 CFU/mL) was 16 mg/L (≈ 10.9 µM) and the “MIC Enterococcus faecalis (GC 6189)” value (Enterococcus sp.; inoculum 5×10^5 CFU/mL) was 16 mg/L (≈ 10.9 µM). The “MIC Enterococcus faecalis (ATCC 29212)” value (Enterococcus sp.) was 16 mg/L (≈ 10.9 µM), the “MIC Enterococcus faecalis (GC 2242)” value (Enterococcus sp.; strain GC 2242) was 16 mg/L (≈ 10.9 µM) and the “MIC Enterococcus faecium (GC 2243)” value (Enterococcus sp.) was 16 mg/L (≈ 10.9 µM). The “MIC Enterococcus faecalis (GC 2691)” value (Enterococcus sp.; strain GC 2691) was 16 mg/L (≈ 10.9 µM), the “MIC Enterococcus faecalis (GC 3059)” value (Enterococcus sp.; strain GC 3059) was 16 mg/L (≈ 10.9 µM) and the “MIC Enterococcus faecalis (GC 4552)” value (Enterococcus sp.) was 16 mg/L (≈ 10.9 µM). The “MIC Enterococcus faecalis (GC 4553)” value (Enterococcus sp.) was 16 mg/L (≈ 10.9 µM), the “MIC Enterococcus faecalis (GC 4554)” value (Enterococcus sp.) was 16 mg/L (≈ 10.9 µM) and the “MIC Enterococcus faecium (GC 4556)” value (Enterococcus sp.) was 16 mg/L (≈ 10.9 µM). The “MIC Enterococcus faecium (GC 4557)” value (Enterococcus sp.) was 8 mg/L (≈ 5.46 µM), the “MIC Enterococcus avium (GC 4558)” value (Enterococcus sp.) was 16 mg/L (≈ 10.9 µM) and the “MIC Enterococcus faecalis (GC 6189)” value (Enterococcus sp.) was 16 mg/L (≈ 10.9 µM). The “MIC Escherichia coli (ATCC 25922)” value (Escherichia coli; strain ATCC 25922, 18 hours at 35° C.) was over 64 mg/L, the “MIC Escherichia coli (GC 4559)” value (Escherichia coli; strain GC 4559, 18 hours at 35° C.) was over 64 mg/L and the “MIC Escherichia coli (GC 4560)” value (Escherichia coli; strain GC 4560, 18 hours at 35° C.) was 2 mg/L (≈ 1.37 µM). For the same compound, the “MIC Staphylococcus aureus (GC 1131)” value (Staphylococcus sp.; inoculum 5×10^5 CFU/mL) was 8 mg/L (≈ 5.46 µM), the “MIC Staphylococcus aureus (ATCC 29213)” value (Staphylococcus sp.; strain ATCC 29213) was 4 mg/L (≈ 2.73 µM) and the “MIC Staphylococcus aureus (GC 1131)” value (Staphylococcus sp.) was 8 mg/L (≈ 5.46 µM). For the same compound, the “MIC Staphylococcus aureus (GC 3051)” value (Staphylococcus sp.; strain GC 3051) was 8 mg/L (≈ 5.46 µM), the “MIC Staphylococcus aureus (GC 3053)” value (Staphylococcus sp.; strain GC 3053) was 8 mg/L (≈ 5.46 µM) and the “MIC Staphylococcus aureus (GC 4541)” value (Staphylococcus sp.; strain GC 4541) was 4 mg/L (≈ 2.73 µM). The “MIC Staphylococcus aureus (GC 4542)” value (Staphylococcus sp.; strain GC 4542) was 4 mg/L (≈ 2.73 µM), the “MIC Staphylococcus aureus-SMITH (GC 4543)” value (Staphylococcus sp.; strain GC 4543) was 4 mg/L (≈ 2.73 µM) and the “MIC Staphylococcus aureus (GC 4544)” value (Staphylococcus sp.; strain GC 4544) was 8 mg/L (≈ 5.46 µM). The “MIC Staphylococcus aureus (GC 4545)” value (Staphylococcus sp.; strain GC 4545) was 4 mg/L (≈ 2.73 µM), the “MIC Staphylococcus haemolyticus (GC 4546)” value (Staphylococcus sp.; strain GC 4546) was 4 mg/L (≈ 2.73 µM) and the “MIC Coagulase Negative Staphylococcus (GC 4547)” value (Staphylococcus sp.; strain GC 4547) was 4 mg/L (≈ 2.73 µM). For the same compound, the “MIC Coagulase Negative Staphylococcus (GC 4548)” value (Staphylococcus sp.; strain GC 4548) was 2 mg/L (≈ 1.37 µM), the “MIC Coagulase Negative Staphylococcus (GC 4549)” value (Staphylococcus sp.; strain GC 4549) was 2 mg/L (≈ 1.37 µM) and the “MIC Coagulase Negative Staphylococcus (GC 4551)” value (Staphylococcus sp.; strain GC 4551) was 8 mg/L (≈ 5.46 µM). For the same compound, the “MIC Coagulase Negative Staphylococcus (GC 6257)” value (Staphylococcus sp.; strain GC 6257) was 2 mg/L (≈ 1.37 µM), the “MIC Staphylococcus aureus-SMITH (GC 4543)” value (Staphylococcus sp.; strain SMITH GC 4543) was 4 mg/L (≈ 2.73 µM) and the “MIC Streptococcus agalactiae (GC 4564)” value (Streptococcus sp.; Streptococcus agalactiae (GC 4564)) was 1 mg/L (≈ 0.683 µM). The “MIC Streptococcus pneumoniae (ATCC 6301)” value (Streptococcus sp.; Streptococcus pneumoniae (ATCC 6301)) was 0.5 mg/L (≈ 0.341 µM), the “MIC Streptococcus pneumoniae (GC 1894)” value (Streptococcus sp.; Streptococcus pneumoniae (GC 1894)) was 0.12 mg/L (≈ 0.0819 µM) and the “MIC Streptococcus pneumoniae (GC 4565)” value (Streptococcus sp.; Streptococcus pneumoniae (GC 4565)) was 0.5 mg/L (≈ 0.341 µM). The “MIC Streptococcus pyogenes (GC 4563)” value (Streptococcus sp.; Streptococcus pyogenes (GC 4563)) was 1 mg/L (≈ 0.683 µM), the “MIC Streptococcus pneumoniae (ATCC 6301)” value (Streptococcus sp.; strain ATCC 6301) was 0.5 mg/L (≈ 0.341 µM) and the “MIC Streptococcus pneumoniae (GC 1894)” value (Streptococcus sp.; strain GC 1894) was 0.12 mg/L (≈ 0.0819 µM). For the same compound, the “MIC Streptococcus pyogenes (GC 4563)” value (Streptococcus sp.; strain GC 4563) was 1 mg/L (≈ 0.683 µM), the “MIC Streptococcus agalactiae (GC 4564)” value (Streptococcus sp.; strain GC 4564) was 1 mg/L (≈ 0.683 µM) and the “MIC Streptococcus pneumoniae (GC 4565)” value (Streptococcus sp.; strain GC 4565) was 0.5 mg/L (≈ 0.341 µM).
